The source of these data is patent US10106530B2, “Pyrazolyl substituted tetrahydropyranylsulfones” (GRÜNENTHAL GMBH, priority 2015, dated 2018).

SMILES strings stand for the structures. Bounds are passed on as bounds.

In one assay the target is T1, Human CaV2.2 channels (Homo sapiens, UniProt Q00975).
T1 construct: expressed in transfected cells; also stably expressing Kir2.3)
T1 sequence (Q00975 whole entry): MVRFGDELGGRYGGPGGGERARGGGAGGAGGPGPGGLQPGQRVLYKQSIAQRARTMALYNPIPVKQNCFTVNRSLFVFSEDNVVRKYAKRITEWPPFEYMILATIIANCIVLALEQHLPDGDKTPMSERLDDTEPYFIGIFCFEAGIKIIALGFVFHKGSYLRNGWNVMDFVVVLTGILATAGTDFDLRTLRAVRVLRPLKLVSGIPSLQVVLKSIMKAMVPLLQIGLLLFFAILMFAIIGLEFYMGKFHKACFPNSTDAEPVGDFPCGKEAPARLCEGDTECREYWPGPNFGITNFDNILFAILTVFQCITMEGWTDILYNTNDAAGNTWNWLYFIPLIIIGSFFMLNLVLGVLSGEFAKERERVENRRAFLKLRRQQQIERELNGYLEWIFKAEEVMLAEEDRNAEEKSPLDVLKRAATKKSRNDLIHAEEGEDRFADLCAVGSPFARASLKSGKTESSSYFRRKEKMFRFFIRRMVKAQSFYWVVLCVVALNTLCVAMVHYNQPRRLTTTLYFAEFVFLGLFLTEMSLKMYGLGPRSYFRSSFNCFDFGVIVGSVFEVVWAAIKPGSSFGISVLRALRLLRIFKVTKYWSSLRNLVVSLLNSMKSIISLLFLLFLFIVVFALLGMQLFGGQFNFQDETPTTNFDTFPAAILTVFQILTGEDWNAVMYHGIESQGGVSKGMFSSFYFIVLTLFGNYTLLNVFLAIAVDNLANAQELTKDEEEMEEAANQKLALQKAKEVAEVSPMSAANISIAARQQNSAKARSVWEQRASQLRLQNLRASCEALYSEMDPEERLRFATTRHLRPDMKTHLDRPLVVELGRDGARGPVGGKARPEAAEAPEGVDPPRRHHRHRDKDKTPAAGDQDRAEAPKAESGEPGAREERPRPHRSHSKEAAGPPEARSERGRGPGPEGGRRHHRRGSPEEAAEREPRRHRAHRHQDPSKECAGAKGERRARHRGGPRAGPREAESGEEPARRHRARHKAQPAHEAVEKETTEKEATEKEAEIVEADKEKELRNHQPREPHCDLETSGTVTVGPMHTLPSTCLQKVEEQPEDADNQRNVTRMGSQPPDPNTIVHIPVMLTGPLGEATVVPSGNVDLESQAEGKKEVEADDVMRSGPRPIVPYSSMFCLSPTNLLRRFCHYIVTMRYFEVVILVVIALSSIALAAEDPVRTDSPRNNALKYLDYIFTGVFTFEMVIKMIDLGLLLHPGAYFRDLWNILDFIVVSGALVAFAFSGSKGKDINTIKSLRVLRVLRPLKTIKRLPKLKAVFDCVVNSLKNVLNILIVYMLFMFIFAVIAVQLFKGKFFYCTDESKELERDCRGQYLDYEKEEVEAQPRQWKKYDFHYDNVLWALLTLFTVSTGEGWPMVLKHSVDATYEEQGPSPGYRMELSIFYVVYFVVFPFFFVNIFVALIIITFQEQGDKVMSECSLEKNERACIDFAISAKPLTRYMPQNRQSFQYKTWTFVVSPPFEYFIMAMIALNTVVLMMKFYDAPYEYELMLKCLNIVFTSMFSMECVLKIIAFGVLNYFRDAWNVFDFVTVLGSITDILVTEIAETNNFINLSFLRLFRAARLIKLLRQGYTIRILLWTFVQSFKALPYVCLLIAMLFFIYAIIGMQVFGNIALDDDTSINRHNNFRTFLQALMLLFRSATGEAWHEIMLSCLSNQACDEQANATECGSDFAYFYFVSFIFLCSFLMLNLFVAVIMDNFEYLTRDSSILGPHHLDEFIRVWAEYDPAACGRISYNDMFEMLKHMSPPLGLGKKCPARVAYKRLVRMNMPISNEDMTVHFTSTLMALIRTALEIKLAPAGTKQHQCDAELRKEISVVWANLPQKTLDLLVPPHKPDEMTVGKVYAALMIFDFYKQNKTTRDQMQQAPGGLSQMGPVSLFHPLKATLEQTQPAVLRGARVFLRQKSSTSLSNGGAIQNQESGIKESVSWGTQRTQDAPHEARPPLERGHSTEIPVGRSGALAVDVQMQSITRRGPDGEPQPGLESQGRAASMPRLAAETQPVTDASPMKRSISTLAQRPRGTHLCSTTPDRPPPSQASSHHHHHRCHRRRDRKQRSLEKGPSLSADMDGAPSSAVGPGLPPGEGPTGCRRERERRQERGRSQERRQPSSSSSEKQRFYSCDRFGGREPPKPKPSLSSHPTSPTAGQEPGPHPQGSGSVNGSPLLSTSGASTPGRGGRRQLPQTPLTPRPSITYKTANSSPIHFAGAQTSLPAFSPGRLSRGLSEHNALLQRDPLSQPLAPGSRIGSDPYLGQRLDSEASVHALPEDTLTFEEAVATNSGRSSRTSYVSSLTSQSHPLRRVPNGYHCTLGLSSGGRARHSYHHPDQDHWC
The experiment in a line: Fluorescence assay for CaV2.2 channels using potassium depolarization to induce channel opening (FLIPR, Fluo 4). The class given is cell-based. The note with it: 3 μM test compound, 30 mM KCl assay buffer (inactivated channel state), HEK293 cells. The source says: In the process, the Ca^2+ influx is quantified in the FLIPR assay with the aid of a Ca^2+-sensitive dye (type Fluo-4, Molecular Probes Europe BV, Leiden, the Netherlands) in a fluorescent imaging plate reader (FLIPR 3, Molecular Devices, Sunnyvale, USA), as described hereinafter.
[drawing 69] 2. Assay Descriptions and Biological Data: 2.1 Fluorescence Assay for CaV2.2 Channels Using Potassium Depolarization to Induce Channel Opening
Human CaV2.2 channels were stably expressed in HEK293 cells together with alpha2-delta and beta subunits of voltage gated calcium channels. In addition, an inwardly rectifying potassium channel (Kir2.3) was stably expressed in these cells to augment control of the cell membrane potential by the concentration of extracellular potassium ions. Raise of the extracellular potassium concentration leads to depolarization of the membrane potential and thus regulates the voltage dependent state of CaV2.2 channels. For preparation, cells were seeded in black poly-D-lysine coated 96-well plates (Becton Dickinson, Biocoat 4640) in 100 μL medium [500 mL DMEM/F-12 plus Glutamax (Invitrogen 31331-093) plus 5.5 mL MEM NEAA 100× (Invitrogen 11140-035) plus 50 mL FBS decomplemented (Invitrogen 10270-106) plus 200 μg/mL Geneticin (Invitrogen 10131-027) plus 50 μg/mL Hygromycin B (Invitrogen 10687-010) plus 2 μg/mL Blasticidin (anti-b15b Invivo-Gen) plus 0.2 μg/mL Puromycin (A 11138-03)] at a cell density of 30.000 cells per well. Plates were incubated at 37° C. (5% CO2) for 20 to 23 h. On the day of experiment medium was discarded and cells were loaded with Fluo 4 by addition of 100 μL of basic assay buffer (10 mM HEPES, 1 mM KCl, 149 mM NaCl, 0.8 mM CaCl2, 1.7 mM MgCl2, 10 mM Glucose, 0.1% BSA. pH 7.4) containing 2 μM Fluo 4 (Molecular Probes; F-14201), 0.01% pluronic acid (Molecular Probes; P-6866) and 2.5 mM probenecid (Molecular Probes; P36400). Cells were incubated in the dark at 25° C. for 60 min. Then dye containing buffer was discarded and 100 μL basic (1 mM KCl) or alternative (30 mM KCl) assay buffer was added. The alternative assay buffer contained altered concentrations of KCl (30 mM) and NaCl (120 mM) and was used in order to promote the inactivated channel state. After that 25 μL of basic or alternative assay buffer with or without test compound were added and cells were incubated again in the dark at 25° C. for 15 min. Fluorescence intensity was measured on a FLIPR 3 instrument (Molecular Devices Corp., Sunnyvale, Calif.) with excitation at 480 nm and emission at 535 nm. After continuously reading fluorescence for 30 sec, 50 μL of basic assay buffer containing 210 mM KCl(NaCl omitted) were added for depolarization. Peak fluorescent signal intensity was determined and the amplitude of the peak signal, normalized to base line, was used to measure channel inhibition by test compounds.
As for `CC1(S(=O)(=O)c2cccc(C(F)(F)F)c2)CCOC(c2cc(OCC(F)F)n[nH]2)C1` (stereo not drawn) [Example 32 cis-EN2, 5-(2,2-Difluoro-ethoxy)-3-[4-methyl-4-[[3-(trifluoromethyl)phenyl]sulfonyl]-tetrahydro-pyran-2-yl]-1H-pyrazole], the “Activity Category: %-Inhib (CaV2.2) @3 μM @30 mM KCl” value (“Activity Category: %-Inhib” below) is recorded as “B (%-Inhibition >75% up to ≤95%)”. The same measure, in the same setting: for `CC(C)CS(=O)(=O)c1cc(C2CC(C)(S(=O)(=O)c3cccc(C(F)(F)F)c3)CCO2)[nH]n1` (stereo not drawn) [Example 35 cis-EN2, 3-(2-Methyl-propylsulfonyl)-5-[4-methyl-4-[[3-(trifluoromethyl)phenyl]sulfonyl]-tetrahydro-pyran-2-yl]-1H-pyrazole] the value was “A (%-Inhibition >95%)”; for `CC(C)(C)CS(=O)(=O)c1cc(C2CC(C)(S(=O)(=O)c3cccc(C(F)(F)F)c3)CCO2)[nH]n1` (stereo not drawn) [Example 36 cis-EN2, 3-(2,2-Dimethyl-propylsulfonyl)-5-[4-methyl-4-[[3-(trifluoromethyl)phenyl]sulfonyl]-tetrahydro-pyran-2-yl]-1H-pyrazole], “A (%-Inhibition >95%)”; for `CC1(S(=O)(=O)c2cccc(C(F)(F)F)c2)CCOC(c2cc(C(F)F)[nH]n2)C1` (stereo not drawn) [[cis-EN2] Example 12] [5-(Difluoro-methyl)-3-[4-methyl-4-[[3-(trifluoromethyl)phenyl]sulfonyl]-tetrahydro-pyran-2-yl]-1H-pyrazole], “A (%-Inhibition >95%)”.

The same assay, now with this note: 3 μM test compound, 30 mM KCl assay buffer (inactivated channel state), HEK293 cells; listed as 37 cis-EN1.
`CC1(S(=O)(=O)c2cccc(C(F)(F)F)c2)CCOC(c2cc(S(C)(=O)=O)n[nH]2)C1` (stereo not drawn) [Example 37 cis-EN1, 5-Methylsulfonyl-3-[4-methyl-4-[[3-(trifluoromethyl)phenyl]sulfonyl]-tetrahydro-pyran-2-yl]-1H-pyrazole]: the “Activity Category: %-Inhib” value was “C (%-Inhibition >40% up to ≤75%)”.

Staying with this assay, now noted: 3 μM test compound, 30 mM KCl assay buffer (inactivated channel state), HEK293 cells; listed as 37 cis-EN2.
On to `CC1(S(=O)(=O)c2cccc(C(F)(F)F)c2)CCOC(c2cc(S(C)(=O)=O)n[nH]2)C1` (stereo not drawn) [Example 37 cis-EN2, 5-Methylsulfonyl-3-[4-methyl-4-[[3-(trifluoromethyl)phenyl]sulfonyl]-tetrahydro-pyran-2-yl]-1H-pyrazole], for which the “Activity Category: %-Inhib” value is “B (%-Inhibition >75% up to ≤95%)”.

Staying with this assay, now noted: 3 μM test compound, 30 mM KCl assay buffer (inactivated channel state), HEK293 cells; listed as 38 cis-EN1.
Turning to `CC(C)(C#N)c1cc(C2CC(C)(S(=O)(=O)c3cccc(C(F)(F)F)n3)CCO2)[nH]n1` (stereo not drawn) [Example 38 cis-EN1, 2-Methyl-2-[5-[4-methyl-4-[[6-(trifluoromethyl)-pyridin-2-yl]sulfonyl]-tetrahydro-pyran-2-yl]-1H-pyrazol-3-yl]-propionitrile], the “Activity Category: %-Inhib” value is on record as “C (%-Inhibition >40% up to ≤75%)”.

The same assay, now with this note: 3 μM test compound, 30 mM KCl assay buffer (inactivated channel state), HEK293 cells; listed as 38 cis-EN2.
As to `CC(C)(C#N)c1cc(C2CC(C)(S(=O)(=O)c3cccc(C(F)(F)F)n3)CCO2)[nH]n1` (stereo not drawn) [Example 38 cis-EN2, 2-Methyl-2-[5-[4-methyl-4-[[6-(trifluoromethyl)-pyridin-2-yl]sulfonyl]-tetrahydro-pyran-2-yl]-1H-pyrazol-3-yl]-propionitrile], the “Activity Category: %-Inhib” value is “B (%-Inhibition >75% up to ≤95%)”.

Still in this assay, the particulars now being: HEK293, 3 μM test compound, 30 mM KCl assay buffer (inactivated channel state), HEK293 cells; read-out: Activity Category: %-Inhib (CaV2.2) @3 μM @30 mM KCl.
Consider `CC1(S(=O)(=O)c2cccc(C(F)(F)F)c2)CCOC(c2cc(S(=O)(=O)CC(F)(F)F)n[nH]2)C1` (stereo not drawn) [Example 29 cis-EN1, 5-[4-Methyl-4-[[3-(trifluoromethyl)phenyl]sulfonyl]-tetrahydro-pyran-2-yl]-3-(2,2,2-trifluoro-ethylsulfonyl)-1H-pyrazole], for which the inhibition at 3 µM lay within 75 to 95%.

For the molecule `CC(C)(C(N)=O)c1cc(C2CC(C)(S(=O)(=O)c3cccc(C(F)(F)F)c3)CCO2)[nH]n1` (stereo not drawn) [Example 30 cis-EN2, 2-Methyl-2-[5-[4-methyl-4-[[3-(trifluoromethyl)phenyl]sulfonyl]-tetrahydro-pyran-2-yl]-1H-pyrazol-3-yl]-propionamide], the inhibition at 3 µM was in the range of 40 to 75%.

On to `CC(C)(C#N)c1cc(C2CC(C)(S(=O)(=O)c3cccc(C(F)(F)F)c3)CCO2)[nH]n1` (stereo not drawn) [Example 31 cis-EN1, 2-Methyl-2-[5-[4-methyl-4-[[3-(trifluoromethyl)phenyl]sulfonyl]-tetrahydro-pyran-2-yl]-1H-pyrazol-3-yl]-propionitrile], for which the inhibition at 3 µM is over 95%.

Regarding `CC1(S(=O)(=O)c2cccc(C(F)(F)F)c2)CCOC(c2cc(OCC(F)F)n[nH]2)C1` (stereo not drawn) [Example 32 cis-EN1, 5-(2,2-Difluoro-ethoxy)-3-[4-methyl-4-[[3-(trifluoromethyl)phenyl]sulfonyl]-tetrahydro-pyran-2-yl]-1H-pyrazole], the inhibition at 3 µM was over 95%. Same read-out and setting: next, `COCC(C)(C)c1cc(C2CC(C)(S(=O)(=O)c3cccc(C(F)(F)F)c3)CCO2)[nH]n1` (stereo not drawn) [Example 33 cis-EN1, 3-(2-Methoxy-1,1-dimethyl-ethyl)-5-[4-methyl-4-[[3-(trifluoromethyl)phenyl]sulfonyl]-tetrahydro-pyran-2-yl]-1H-pyrazole]: over 95%; `CC(C)(CO)c1cc(C2CC(C)(S(=O)(=O)c3cccc(C(F)(F)F)c3)CCO2)[nH]n1` (stereo not drawn) [Example 34 cis-EN1, 2-Methyl-2-[5-[4-methyl-4-[[3-(trifluoromethyl)phenyl]sulfonyl]-tetrahydro-pyran-2-yl]-1H-pyrazol-3-yl]-propan-1-ol]: 75 to 95%. The same measure, in the same setting: for `CC(C)CS(=O)(=O)c1cc(C2CC(C)(S(=O)(=O)c3cccc(C(F)(F)F)c3)CCO2)[nH]n1` (stereo not drawn) [Example 35 cis-EN1, 3-(2-Methyl-propylsulfonyl)-5-[4-methyl-4-[[3-(trifluoromethyl)phenyl]sulfonyl]-tetrahydro-pyran-2-yl]-1H-pyrazole] the value was 75 to 95%; for `CC(C)(C)CS(=O)(=O)c1cc(C2CC(C)(S(=O)(=O)c3cccc(C(F)(F)F)c3)CCO2)[nH]n1` (stereo not drawn) [Example 36 cis-EN1, 3-(2,2-Dimethyl-propylsulfonyl)-5-[4-methyl-4-[[3-(trifluoromethyl)phenyl]sulfonyl]-tetrahydro-pyran-2-yl]-1H-pyrazole], 75 to 95%; for `CC1(S(=O)(=O)c2cccc(C(F)(F)F)c2)CCOC(c2cc(S(=O)(=O)C(F)F)n[nH]2)C1` (stereo not drawn) [[cis-EN1] Example 1, 3-(Difluoro-methylsulfonyl)-5-[4-methyl-4-[[3-(trifluoromethyl)phenyl]sulfonyl]-tetrahydro-pyran-2-yl]-1H-pyrazole], 75 to 95%. Same read-out and setting: next, `CC1(S(=O)(=O)c2cccc(C(F)(F)F)c2)CCOC(c2cc(C(F)F)[nH]n2)C1` (stereo not drawn) [[cis-EN1] Example 12, 5-(Difluoro-methyl)-3-[4-methyl-4-[[3-(trifluoromethyl)phenyl]sulfonyl]-tetrahydro-pyran-2-yl]-1H-pyrazole]: 75 to 95%.
